The text below walks through data of patent US9169255B2, “Caffeinated compounds and compositions for treatment of amyloid diseases and synucleinopathies” (ProteoTech Inc, priority 2011, dated 2015).

Series [1] in a line: Plasma and brain pharmacokinetics in mice after intraperitoneal injection. As to conditions: CD-1 female mice, i.p. injection at 50 mg/kg, 7-60 min post-dose; for AUC / Cmax: mouse, plasma, ip. It counts as in vivo. The text has this: For select compounds in this invention, we have used wild type mice to determine the following plasma pharmacokinetic (PK) parameters: maximal concentration (Cmax), and area under the curve (AUC) as derived from a time versus concentration plot. We have also determined the maximal mouse brain levels, and overall brain exposure over time of select compounds in this invention, expressed as Cmax-brain and AUC-brain, respectively. In order to establish the method, we assessed brain and plasma compound levels over time utilizing 50 mg/kg intraperitoneal (i.p.) injections of 2 control compounds. […] In a typical experiment to assess the compounds in this invention, we used CD-1 female mice with a sample size (n) equal to 4 mice per post-dose time-point (for example, 7, 15, 30, and 60 min post-dose). We chose early time points to assess initial exposure, when we expected plasma and brain exposure to be the high, though we may have missed even higher exposure at earlier time points (between 0 and 7 minutes) since brain and plasma levels were highest in our study at the earliest time point assessed (7 minutes).
For the purpose of these studies, each compound was formulated at 5 mg/mL in 20% polyethylene glycol (PEG)-400 in PBS+0.1% ascorbic acid (w/v). The dose volume was 10 mL/kg of body weight. Mice were administered test compound via intraperitoneal injection, and at about 2-3 minutes before scheduled sacrifice, they were deeply anesthetized with 2.5% avertin. Once anesthetized, whole blood was removed by cardiac puncture, transferred to appropriate EDTA-containing tubes, and immediately chilled on ice. This was followed by complete perfusion of each mouse with >15 ml cold 0.9% saline by cannulation of the left ventricle and clamping of the descending aorta. Brains were harvested, frozen on dry ice and stored at −80° C. for bioanalysis of the test compound. Plasma was extracted from whole blood by standard centrifugation techniques within 1 hour. Compounds were (liquid-liquid) extracted from plasma and brain homogenates using ethyl acetate, followed by HPLC/MS quantitation using methods (i.e. HPLC gradients and mass spectrometry parameters) developed for these novel compounds. All methods established sufficient stability in relevant matrices and solvents, and used internal quantitation controls. Quantitation was achieved using a calibration curve generated with compounds spiked into the appropriate matrix (i.e. 20% PEG-400/PBS+0.1% ascorbic acid). We have established lower limit of quantitative sensitivities of 5-25 ng/ml (plasma) and 5-25 ng/g (brain), sufficient for these studies. Following determination of the brain and plasma concentrations at the various post-dose time points, select plasma (Cmax and AUC) and brain (Cmax-brain and AUC-brain) PK parameters were determined with WinNonLin software (Pharsight Inc). We compared the values determined for the compounds in this invention to the values for the positive control compound that when administered at the same therapeutically relevant route and dose level (i.p. injection at 50 mg/kg) is known to be present in the plasma and the brain at levels sufficient for a biological effect (i.e. reduction of α-synuclein brain levels and improved motor function; data not shown).

For series [2], the target named is T1, A53T-mutant human α-synuclein (Homo sapiens, UniProt P37840, A53T).
T1 construct: expressed in transfected cells; host or cells: BE-M17 human neuroblastoma cells
As to the kind of experiment: Thioflavin S-positive aggregates in rotenone-treated BE-M17 cells overexpressing A53T α-synuclein. It counts as cell-based. The text has this:
To test the therapeutic potential of the compounds, a cell-based assay was utilized. In this assay, rotenone is used to induce mitochondrial oxidative stress and cause α-synuclein aggregation. The assay utilizes the binding of the fluorescent dye Thioflavin S to structures with high β-sheet content, including α-synuclein fibrils. Therefore, quantitative assessment of the extent of Thioflavin S-positive staining of fixed cells is used to test the ability of the test compounds to inhibit/prevent or decrease the amount of α-synuclein aggregates relative to cells that were treated with rotenone only. This study is presented in the following examples.
BE-M17 human neuroblastoma cells stably transfected with A53T-mutant human α-synuclein were obtained. Cell culture reagents were obtained from Gibco/Invitrogen, and cells were grown in OPTIMEM supplemented with 10% FBS, Penicillin (100 units/ml), Streptomycin (100 μg/ml) and 500 μg/ml G418 as previously described (Ostrerova-Golts et al., J. Neurosci., 20:6048-6054, 2000).
Thioflavin S is commonly used to detect aggregated protein structures in situ, including in brain tissue (Vallet et al., Acta Neuropathol., 83:170-178, 1992), and cultured cells (Ostrerova-Golts et al., J. Neurosci., 20:6048-6054, 2000), whereas Thioflavin T is often used as an in vitro reagent to analyze the aggregation of soluble proteins into fibrils enriched in β-pleated sheet structures (LeVine III, Prot. Sci., 2:404-410, 1993). Therefore, Thioflavin S histochemistry was used on cultured cells to detect aggregates containing a high degree of β-pleated structures that formed in response to oxidative stress-inducing agents (in this case rotenone) as previously described, with minor modifications (Ostrerova-Golts et al., J. Neurosci., 20:6048-6054, 2000). Briefly, for these studies cells were grown on Poly-D-Lysine coated glass slide chambers at approximately 4.5−5.5×10^4 cells/cm^2. After 16-18 hours, cells were treated with 500 nM or 2 μM rotenone (Sigma) or vehicle (0.05% DMSO) as indicated. Within 15 minutes of rotenone (or vehicle) addition, compounds were added at the indicated concentration, or mock-treatment was performed in which cell culture media only (no compound) was added. Identical treatments were repeated after 48 hours. After an additional 24 hours, cells were fixed for 25 minutes in 3% paraformaldehyde. After a PBS wash and a deionized water wash, the cells were incubated with 0.015% Thioflavin S in 50% ethanol for 25 minutes, washed twice for four minutes in 50% ethanol and twice for five minutes in deionized water and then mounted using an aqueous-based mountant designed to protect against photobleaching. Aggregates that bind to Thioflavin S were detected with a fluorescent microscope using a High Q FITC filter set (480 to 535 nm bandwidth) and a 20× objective lens unless otherwise indicated. Between 8 and 20 (usually 16-18) representative images per condition were selected and imaged using Q Capture software by an experimenter who was blinded to treatment conditions. To assess the amount of Thioflavin S-positive aggregates, the total area per field covered by Thioflavin S-positive inclusions was determined by image analysis and quantitation. […] Spurious, non-cell associated fluorescence was manually removed. Unless indicated otherwise, comparisons between groups were made by comparing mean relative amounts of Thioflavin S-positive inclusions for a given treatment condition (i.e. cells treated with rotenone only versus cells treated with rotenone and test compound at a given concentration). Statistical analyses were performed with GraphPad Prism (GraphPad Inc). Differences between means (two samples) were assessed by the Student's t test. Differences among multiple means were assessed by one-factor ANOVA followed by Dunnett's post hoc test, compared to rotenone only treated cells. […]

For `Cn1cnc2c1c(=O)n(Cc1ccc(O)c(O)c1)c(=O)n2Cc1ccc(O)c(O)c1` [PD-150, 7-Methyl-1,3-bis(3′,4′-dihydroxy)benzylxanthine], in series [1], the AUC-brain is listed as 3,048 min*ng/g, the Cmax-brain was 99.5 ng/g, the AUC is 2130 ng·h/mL and the Cmax turned out to be 3280 ng/mL.

Turning to `Cn1c(=O)n(Cc2ccc(O)c(O)c2)c(=O)c2c1ncn2Cc1ccc(O)c(O)c1` [PD-151, 3-Methyl-1,7-bis(3′,4′-dihydroxybenzyl)xanthine], in series [2] (500 nM rotenone, 500 nM compound), the “reduction of rotenone-induced Thioflavin S-positive aggregates relative to rotenone only-treated cells” value was 52%. The “reduction of rotenone-induced Thioflavin S-positive aggregates relative to rotenone only-treated cells” value in series [2] (500 nM rotenone, 2 μM compound) is on record as 84%. Moreover, the “reduction of rotenone-induced Thioflavin S-positive aggregates relative to rotenone only-treated cells” value in series [2] (2 μM rotenone, 2 μM compound) is recorded as 58%. In addition, the “reduction of rotenone-induced Thioflavin S-positive aggregates relative to rotenone only-treated cells” value in series [2] (2 μM rotenone, 5 μM compound) was found to be 60%. Besides, in series [1], the AUC-brain is on record as 2,147 min*ng/g, the Cmax-brain is 59.2 ng/g, the AUC is 3540 ng·h/mL and the peak level (Cmax) was 5340 ng/mL.

With `Cn1c(=O)c2c(ncn2Cc2ccc(O)c(O)c2)n(Cc2ccc(O)c(O)c2)c1=O` [PD-152], the “reduction of rotenone-induced Thioflavin S-positive aggregates relative to rotenone only-treated cells” value is reported as 54% in series [2] (500 nM rotenone, 2 μM compound); 55% in series [2] (500 nM rotenone, 5 μM compound); 78% in series [2] (2 μM rotenone, 500 nM compound); 79% in series [2] (2 μM rotenone, 2 μM compound).

For orientation: AUC means the area under the concentration-time curve, a measure of exposure. Low values mean less exposure, high ones more exposure. In general, Cmax refers to the highest concentration seen after dosing.
